Measurements as given in patent US20260297080A1, “BICYCLIC COMPOUNDS AS CDK INHIBITORS” (BeOne Medicines I GmbH, priority 2022, published 2026).

How the values were obtained:
CDK2/Cyclin E1 = CDK2/Cyclin E1 (Homo sapiens, UniProt P24941); test: CDK2/Cyclin E1 Biochemical Assay (TR-FRET), 0.060 mM ATP; details: 0.15 μM Rb (Ser780)-biotin substrate, pH7.0, 60 min preincubation, 120 min reaction, room temperature
Procedure, shortened: (§1)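 IC50 was from a four-parameter logistic fit of the 665/620 nm TR-FRET ratio (Eu anti-pRb Ser780 mAb, streptavidin-XL665). Compound (0-10 μM) was preincubated 60 min with enzyme, then reacted 120 min at room temperature with 0.15 μM biotinylated Rb (Ser780) peptide. ATP was 0.015 mM for CDK1/Cyclin B1 and 0.060 mM for CDK2/Cyclin E1; buffer was HEPES pH7.0.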

CDK1/Cyclin B1 = CDK1/Cyclin B1 (Homo sapiens, UniProt P06493); test: CDK1/Cyclin B1 Biochemical Assay (TR-FRET), 0.015 mM ATP; details: 0.15 μM Rb (Ser780)-biotin substrate, pH7.0, 60 min preincubation, 120 min reaction, room temperature
Procedure, shortened: as §1

CDK1/Cyclin B1, sequence (P06493 whole entry): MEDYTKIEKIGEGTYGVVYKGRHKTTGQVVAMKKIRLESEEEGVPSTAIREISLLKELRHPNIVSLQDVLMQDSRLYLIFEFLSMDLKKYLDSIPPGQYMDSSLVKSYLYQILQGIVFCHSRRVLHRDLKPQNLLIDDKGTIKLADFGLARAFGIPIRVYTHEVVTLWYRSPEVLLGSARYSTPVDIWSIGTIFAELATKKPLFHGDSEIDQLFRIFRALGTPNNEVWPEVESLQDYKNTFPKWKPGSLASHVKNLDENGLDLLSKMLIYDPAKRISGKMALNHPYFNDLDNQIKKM
CDK1/Cyclin B1, sequence (P14635 whole entry partner): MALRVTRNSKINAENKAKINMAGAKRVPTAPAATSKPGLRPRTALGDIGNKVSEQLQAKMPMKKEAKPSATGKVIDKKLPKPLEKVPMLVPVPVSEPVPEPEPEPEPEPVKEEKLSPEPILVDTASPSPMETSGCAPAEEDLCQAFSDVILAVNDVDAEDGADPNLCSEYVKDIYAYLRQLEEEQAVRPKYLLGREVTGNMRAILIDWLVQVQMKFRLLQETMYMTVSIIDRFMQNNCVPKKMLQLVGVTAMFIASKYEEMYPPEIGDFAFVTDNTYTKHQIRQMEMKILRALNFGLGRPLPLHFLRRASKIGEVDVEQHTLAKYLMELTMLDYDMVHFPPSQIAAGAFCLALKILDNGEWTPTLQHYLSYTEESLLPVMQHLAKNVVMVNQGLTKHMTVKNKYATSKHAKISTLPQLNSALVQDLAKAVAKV

| Structure (SMILES) | IC50 (CDK2/Cyclin E1) | IC50 (CDK1/Cyclin B1) |
| --- | --- | --- |
| CCCNC(=O)O[C@H]1CC[C@@H](c2cc(Nc3ccc4c(c3F)C(C)NS4(=O)=O)n[nH]2)C1 (single isomer, unassigned) [Example 53a, cis-3-(3-((4-fluoro-3-methyl-1,1-dioxido-2,3-dihydrobenzo[d]isothiazol-5-yl)amino)-1H-pyrazol-5-yl)cyclopentyl propylcarbamate] | 6.3 nM | 367 nM |
| CC1(NC(=O)O[C@H]2CC[C@@H](c3cc(Nc4ccc5c(c4F)CS(=O)(=O)N5C4CC4)n[nH]3)C2)COC1 (relative stereo) [Example 362, cis-3-(3-((1-cyclopropyl-4-fluoro-2,2-dioxido-1,3-dihydrobenzo[c]isothiazol-5-yl)amino)-1H-pyrazol-5-yl)cyclopentyl(3-methyloxetan-3-yl)carbamate] | 3.8 nM | 133 nM |
| Cc1c(Nc2cc([C@@H]3CC[C@H](OC(=O)NC(C)C)C3)[nH]n2)ccc2c1S(=O)(=O)NC2 (relative stereo) [Example 353, cis-3-(3-((7-methyl-1,1-dioxido-2,3-dihydrobenzo[d]isothiazol-6-yl)amino)-1H-pyrazol-5-yl)cyclopentyl isopropylcarbamate] | 2.4 nM | 93 nM |
| CC(C)NC(=O)O[C@H]1CC[C@@H](c2cc(Nc3ccc4c(c3)C3(CC3)S(=O)(=O)N4)n[nH]2)C1 (relative stereo) [Example 200, cis-3-(3-((2,2-dioxido-1H-spiro[benzo[c]isothiazole-3, 1′-cyclopropan]-5-yl)amino)-1H-pyrazol-5-yl)cyclopentyl isopropylcarbamate] | 5.5 nM | 75 nM |
| CCCNC(=O)O[C@H]1CC[C@@H](c2cc(Nc3ccc4c(c3F)S(=O)(=O)NC4)n[nH]2)C1 (single isomer, unassigned) [Example 189a, cis-3-(3-((7-fluoro-1,1-dioxido-2,3-dihydrobenzo[d]isothiazol-6-yl)amino)-1H-pyrazol-5-yl)cyclopentyl propylcarbamate] | 10 nM | 350 nM |
| CC(C)NC(=O)O[C@H]1CC[C@@H](c2cc(Nc3ccc4c(c3)CS(=O)(=O)N4CCC3CCOCC3)n[nH]2)C1 (relative stereo) [Example 217, cis-3-(3-((2,2-dioxido-1-(2-(tetrahydro-2H-pyran-4-yl)ethyl)-1,3-dihydrobenzo[c]isothiazol-5-yl)amino)-1H-pyrazol-5-yl)cyclopentyl isopropylcarbamate] | 8.8 nM | 126 nM |
| CC1(NC(=O)O[C@H]2CC[C@@H](c3cc(Nc4ccc5c(c4F)CNS5(=O)=O)n[nH]3)C2)CC1 (single isomer, unassigned) [Example 140a, cis-3-(3-((4-fluoro-1,1-dioxido-2,3-dihydrobenzo[d]isothiazol-5-yl)amino)-1H-pyrazol-5-yl)cyclopentyl(1-methylcyclopropyl)carbamate] | 1.1 nM | 97 nM |
| O=C(NCC1COC1)O[C@H]1CC[C@@H](c2cc(Nc3ccc4c(c3F)CNS4(=O)=O)n[nH]2)C1 (relative stereo) [Example 148, cis-3-(3-((4-fluoro-1,1-dioxido-2,3-dihydrobenzo[d]isothiazol-5-yl)amino)-1H-pyrazol-5-yl)cyclopentyl(oxetan-3-ylmethyl)carbamate] | 44 nM | 523 nM |
| CC(C)NC(=O)O[C@H]1CC[C@@H](c2cc(Nc3ccc4c(c3)CS(=O)(=O)N4CC3COC3)n[nH]2)C1 (relative stereo) [Example 210, cis-3-(3-((1-(oxetan-3-ylmethyl)-2,2-dioxido-1,3-dihydrobenzo[c]isothiazol-5-yl)amino)-1H-pyrazol-5-yl)cyclopentyl isopropylcarbamate] | 2.1 nM | 40 nM |
| CN1c2ccc(Nc3cc([C@@H]4CC[C@H](OC(=O)NC5(CO)CCC5)C4)[nH]n3)cc2CS1(=O)=O (relative stereo) [Example 386, cis-3-(3-((1-methyl-2,2-dioxido-1,3-dihydrobenzo[c]isothiazol-5-yl)amino)-1H-pyrazol-5-yl)cyclopentyl(1-(hydroxymethyl)cyclobutyl)carbamate] | 1 nM | 28 nM |
| CC1(NC(=O)O[C@H]2CC[C@@H](c3cc(Nc4cc5c(cc4F)NS(=O)(=O)C5)n[nH]3)C2)CC1 (relative stereo) [Example 295, cis-3-(3-((6-fluoro-2,2-dioxido-1,3-dihydrobenzo[c]isothiazol-5-yl)amino)-1H-pyrazol-5-yl)cyclopentyl(1-methylcyclopropyl)carbamate] | 23 nM | 426 nM |
| CC(C)NC(=O)O[C@H]1CC[C@@H](c2cc(Nc3cc(Cl)c4c(c3)S(=O)(=O)NC4)n[nH]2)C1 (relative stereo) [Example 184, cis-3-(3-((4-chloro-1,1-dioxido-2,3-dihydrobenzo[d]isothiazol-6-yl)amino)-1H-pyrazol-5-yl)cyclopentyl isopropylcarbamate] | 1.5 nM | 4.1 nM |
| CC(C)NC(=O)O[C@H]1CC[C@@H](c2cc(Nc3ccc4c(c3)CS(=O)(=O)N4C3CC3)n[nH]2)C1 (relative stereo) [Example 203, cis-3-(3-((1-cyclopropyl-2,2-dioxido-1,3-dihydrobenzo[c]isothiazol-5-yl)amino)-1H-pyrazol-5-yl)cyclopentyl isopropylcarbamate] | 5.4 nM | 41 nM |
| [2H]C([2H])([2H])N1c2c(F)cc(Nc3cc([C@@H]4CC[C@H](OC(=O)NCCC)C4)[nH]n3)cc2CS1(=O)=O (single isomer, unassigned) [Example 290b, cis-3-(3-((7-fluoro-1-(methyl-d3)-2,2-dioxido-1,3-dihydrobenzo[c]isothiazol-5-yl)amino)-1H-pyrazol-5-yl)cyclopentyl propylcarbamate] | 7.5 nM | 94 nM |
| CC(C)NC(=O)O[C@H]1CC[C@@H](c2cc(Nc3ccc4c(c3)CS(=O)(=O)N4CC(C)(C)O)n[nH]2)C1 (relative stereo) [Example 216, cis-3-(3-((1-(2-hydroxy-2-methylpropyl)-2,2-dioxido-1,3-dihydrobenzo[c]isothiazol-5-yl)amino)-1H-pyrazol-5-yl)cyclopentyl isopropylcarbamate] | 7.8 nM | 54 nM |

The remaining lines, values ahead:

| IC50 (CDK2/Cyclin E1) | IC50 (CDK1/Cyclin B1) | Structure (SMILES) |
| --- | --- | --- |
| 0.9 nM | 52 nM | CC[C@H](C)NC(=O)O[C@H]1CC[C@@H](c2cc(Nc3ccc4c(c3F)CNS4(=O)=O)n[nH]2)C1 (single isomer, unassigned) [Example 139b] |
| 1.3 nM | 56 nM | CC[C@H](C)NC(=O)O[C@H]1CC[C@@H](c2cc(Nc3ccc4c(c3F)CS(=O)(=O)N4C3CC3)n[nH]2)C1 (relative stereo) [Example 278, cis-3-(3-((1-cyclopropyl-4-fluoro-2,2-dioxido-1,3-dihydrobenzo[c]isothiazol-5-yl)amino)-1H-pyrazol-5-yl)cyclopentyl((S)-sec-butyl)carbamate] |
| 7.3 nM | 412 nM | CC(C)NC(=O)O[C@H]1CC[C@@H](c2cc(Nc3ccc4c(c3F)CN(CC(F)(F)F)S4(=O)=O)n[nH]2)C1 (relative stereo) [Example 66, cis-3-(3-((4-fluoro-1,1-dioxido-2-(2,2,2-trifluoroethyl)-2,3-dihydrobenzo[d]isothiazol-5-yl)amino)-1H-pyrazol-5-yl)cyclopentyl isopropylcarbamate] |
| 8.9 nM | 296 nM | Cc1c(Nc2cc([C@@H]3CC[C@H](OC(=O)NC(C)C)C3)[nH]n2)ccc2c1CN(C)S2(=O)=O (relative stereo) [Example 35, cis-3-(3-((2,4-dimethyl-1,1-dioxido-2,3-dihydrobenzo[d]isothiazol-5-yl)amino)-1H-pyrazol-5-yl)cyclopentyl isopropylcarbamate] |
| 11 nM | 1190 nM | CC(C)NC(=O)O[C@H]1CC[C@@H](c2cc(Nc3ccc4c(c3F)CN(C3CCCC3O)S4(=O)=O)n[nH]2)C1 (relative stereo) [Example 109, cis-3-(3-((4-fluoro-2-(2-hydroxycyclopentyl)-1,1-dioxido-2,3-dihydrobenzo[d]isothiazol-5-yl)amino)-1H-pyrazol-5-yl)cyclopentyl isopropylcarbamate] |
| 7.2 nM | 537 nM | CC(C)NC(=O)O[C@H]1CC[C@@H](c2cc(Nc3ccc4c(c3F)CN(C3CCNC(=O)C3)S4(=O)=O)n[nH]2)C1 (relative stereo) [Example 81, cis-3-(3-((4-fluoro-1,1-dioxido-2-(2-oxopiperidin-4-yl)-2,3-dihydrobenzo[d]isothiazol-5-yl)amino)-1H-pyrazol-5-yl)cyclopentyl isopropylcarbamate] |
| 23 nM | 1110 nM | CC(C)NC(=O)O[C@H]1CC[C@@H](c2cc(Nc3ccc4c(c3F)CN(C3CCN(Cc5ccccc5)CC3)S4(=O)=O)n[nH]2)C1 (relative stereo) [Example 63, cis-3-(3-((2-(1-benzylpiperidin-4-yl)-4-fluoro-1,1-dioxido-2,3-dihydrobenzo[d]isothiazol-5-yl)amino)-1H-pyrazol-5-yl)cyclopentyl isopropylcarbamate] |
| 1.8 nM | 91 nM | CC[C@H](C)NC(=O)O[C@H]1CC[C@@H](c2cc(Nc3ccc4c(c3F)CN(C3CC3)S4(=O)=O)n[nH]2)C1 (single isomer, unassigned) [Example 117b] |
| 2.5 nM | 43 nM | CC[C@H](C)NC(=O)O[C@H]1CC[C@@H](c2cc(Nc3ccc4c(c3F)CS(=O)(=O)N4CCO)n[nH]2)C1 (relative stereo) [Example 273, cis-3-(3-((4-fluoro-1-(2-hydroxyethyl)-2,2-dioxido-1,3-dihydrobenzo[c]isothiazol-5-yl)amino)-1H-pyrazol-5-yl)cyclopentyl((S)-sec-butyl)carbamate] |
